Assay results published in article PMC4287394 (Clinical cancer research : an official journal of the …, 2014).

Assays:
[1] = Plasma pharmacokinetics in patients; type: in vivo, human; conditions: for half-life / AUC(0-t) / Cmax / Tmax: human, plasma; for AUC(0-t): AUC 0-24, geometric mean; for Cmax: geometric mean; for Tmax: median
[2] = tested on: Class I PI3K; conditions: cited from earlier work
[3] = tested on: IGROV1 ovarian cancer xenografts; conditions: oral dose of 150mg/kg; IGROV1 ovarian cancer xenograft; cited from earlier work
[4] = tested on: purified recombinant human PI3K p110β; conditions: read-out: IC50 p110β; purified recombinant human PI3K isoforms; cited from earlier work
[5] = tested on: phospho-AKT (Ser473) in platelet-rich plasma; assay: Phospho-AKT in platelet-rich plasma; type: in vivo, human
[6] = oral, 15 mg, Day 1, 15 mg QD, 4 patients
[7] = oral, 15 mg, Day 15, 15 mg QD, 4 patients
[8] = oral, 30 mg, Day 1, 30 mg QD, 3 patients
[9] = oral, 30 mg, Day 15, 30 mg QD, 3 patients
[10] = oral, 45 mg, Day 1, 45 mg QD, 4 patients
[11] = oral, 45 mg, Day 15, 45 mg QD, 4 patients
[12] = oral, 60 mg, Day 1, 60 mg QD, 4 patients
[13] = oral, 60 mg, Day 15, 60 mg QD, 3 patients
[14] = oral, 80 mg, Day 1, 80 mg QD, 3 patients
[15] = oral, 80 mg, Day 15, 80 mg QD, 3 patients
[16] = oral, 100 mg, Day 1, 100 mg QD, 5 patients
[17] = oral, 100 mg, Day 15, 100 mg QD, 3 patients
[18] = oral, 130 mg, Day 1, 130 mg QD, 3 patients
[19] = oral, 130 mg, Day 15, 130 mg QD, 3 patients
[20] = oral, 180 mg, Day 1, 180 mg QD, 3 patients
[21] = oral, 180 mg, Day 15, 180 mg QD, 3 patients
[22] = oral, 245 mg, Day 1, 245 mg QD, 3 patients
[23] = oral, 245 mg, Day 15, 245 mg QD, 3 patients
[24] = oral, 330 mg, Day 1, 330 mg QD, 17 patients
[25] = oral, 330 mg, Day 15, 330 mg QD, 17 patients
[26] = oral, 340 mg, Day 1, 340 mg QD, 7 patients
[27] = oral, 340 mg, Day 15, 340 mg QD, 6 patients
[28] = oral, 400 mg, Day 1, 400 mg QD, 1 patient
[29] = oral, 450 mg, Day 1, 450 mg QD, 3 patients
[30] = oral, 450 mg, Day 15, 450 mg QD, 3 patients

Compound: CS(=O)(=O)N1CCN(Cc2cc3nc(-c4cccc5[nH]ncc45)nc(N4CCOCC4)c3s2)CC1 [pictilisib, 2-(1H-indazol-4-yl)-6-(4-methanesulfonyl-piperazin-1-ylmethyl)-4-morpholin-4-yl-t hieno[3,2-d]pyrimidine]
- Increase in exposure (Cmax and AUC0-24) with dose ([1]; across the dose levels studied, 15-450mg): dose-proportional
- half-life ([1]; oral): 13.1 to 24.1 h
- half-life ([1]; oral, 15 mg): 19.2 h
- AUC(0-t) [1, 6]: 0.978 µM·h
- AUC(0-t) [1, 7]: 1.35 µM·h
- Cmax [1, 6]: 112 nM
- Cmax [1, 7]: 116 nM
- Tmax [1, 6]: 2 h
- Tmax [1, 7]: 1.5 h
- half-life ([1]; oral, 30 mg): 24.1 h
- AUC(0-t) [1, 8]: 1.18 µM·h
- AUC(0-t) [1, 9]: 1.9 µM·h
- Cmax [1, 8]: 144 nM
- Cmax [1, 9]: 179 nM
- Tmax [1, 8]: 2 h
- Tmax [1, 9]: 1 h
- half-life ([1]; oral, 45 mg): 19.5 h
- AUC(0-t) [1, 10]: 2.77 µM·h
- AUC(0-t) [1, 11]: 4.09 µM·h
- Cmax [1, 10]: 362 nM
- Cmax [1, 11]: 436 nM
- Tmax [1, 10]: 2 h
- Tmax [1, 11]: 2 h
- half-life ([1]; oral, 60 mg): 18.8 h
- AUC(0-t) [1, 12]: 2.02 µM·h
- AUC(0-t) [1, 13]: 2.78 µM·h
- Cmax [1, 12]: 242 nM
- Cmax [1, 13]: 270 nM
- Tmax [1, 12]: 2 h
- Tmax [1, 13]: 3 h
- half-life ([1]; oral, 80 mg): 20.1 h
- AUC(0-t) [1, 14]: 5.45 µM·h
- AUC(0-t) [1, 15]: 9.86 µM·h
- Cmax [1, 14]: 632 nM
- Cmax [1, 15]: 779 nM
- Tmax [1, 14]: 2 h
- Tmax [1, 15]: 3 h
- half-life ([1]; oral, 100 mg): 14.6 h
- AUC(0-t) [1, 16]: 3.19 µM·h
- AUC(0-t) [1, 17]: 5.64 µM·h
- Cmax [1, 16]: 362 nM
- Cmax [1, 17]: 751 nM
- Tmax [1, 16]: 2 h
- Tmax [1, 17]: 2 h
- half-life ([1]; oral, 130 mg): 13.1 h
- AUC(0-t) [1, 18]: 2.99 µM·h
- AUC(0-t) [1, 19]: 5.03 µM·h
- Cmax [1, 18]: 359 nM
- Cmax [1, 19]: 457 nM
- Tmax [1, 18]: 2 h
- Tmax [1, 19]: 1 h
- half-life ([1]; oral, 180 mg): 17.1 h
- AUC(0-t) [1, 20]: 5.95 µM·h
- AUC(0-t) [1, 21]: 8.25 µM·h
- Cmax [1, 20]: 611 nM
- Cmax [1, 21]: 783 nM
- Tmax [1, 20]: 2 h
- Tmax [1, 21]: 1 h
- half-life ([1]; oral, 245 mg): 16.8 h
- AUC(0-t) [1, 22]: 8.18 µM·h
- AUC(0-t) [1, 23]: 11.3 µM·h
- Cmax [1, 22]: 994 nM
- Cmax [1, 23]: 1370 nM
- Tmax [1, 22]: 2 h
- Tmax [1, 23]: 1 h
- half-life ([1]; oral, 330 mg): 15.7 h
- AUC(0-t) [1, 24]: 14.4 µM·h
- AUC(0-t) [1, 25]: 22.8 µM·h
- Cmax [1, 24]: 1520 nM
- Cmax [1, 25]: 2070 nM
- Tmax [1, 24]: 2 h
- Tmax [1, 25]: 3 h
- half-life ([1]; oral, 340 mg): 20.9 h
- AUC(0-t) [1, 26]: 14.9 µM·h
- AUC(0-t) [1, 27]: 16.5 µM·h
- Cmax [1, 26]: 1680 nM
- Cmax [1, 27]: 1950 nM
- Tmax [1, 26]: 2 h
- Tmax [1, 27]: 1 h
- half-life ([1]; oral, 400 mg): 14.8 h
- AUC(0-t) [1, 28]: 15.6 µM·h
- Cmax [1, 28]: 1650 nM
- Tmax [1, 28]: 2 h
- half-life ([1]; oral, 450 mg): 15 h
- AUC(0-t) [1, 29]: 13.9 µM·h
- AUC(0-t) [1, 30]: 23.5 µM·h
- Cmax [1, 29]: 1950 nM
- Cmax [1, 30]: 2640 nM
- Tmax [1, 29]: 2 h
- Tmax [1, 30]: 2 h
- Tmax ([1]; po, fasting, all doses): 2 h
- Observed in vitro potency compared with BKM120 [2]: higher
- growth inhibition [3]: 80%
- IC50 [4]: 33 nM
- Inhibition of phospho-AKT level in platelet rich plasma ([5]; 1 to 3 hours post-dose at the RP2D (330mg)): up to 90%
- Suppression of phosphorylated serine-473 AKT in platelet rich plasma ([5]; 3 hours post-dose at the MTD): > 90%
- Phospho-AKT in platelet rich plasma, sustained effect, % of baseline ([5]; 24 hours post-dose at the RP2D (330mg)): 50%
